Source: US20040009601A1, “Methods for the regeneration and transformation of cotton” (The Regents of the University of California, priority 2002, published 2004)

Tested on: Maxxa hypocotyl explants
Experiment: Callus induction from Maxxa hypocotyl explants, orthogonal array L9 factorial experiment
Assay type: cell-based, Gossypium hirsutum L. cv. Maxxa
Conditions: for Σ RG1: regeneration potential, mean Y of factor 1: factor 1 = 0 mg l-1 of the hormone; for Σ RG2: regeneration potential, mean Y of factor 2: factor 2 = 2,4-D 0.05, NAA 1.0, kinetin 0.5 mg l-1; for Σ RG3: regeneration potential, mean Y of factor 3: factor 3 = 2,4-D 0.1, NAA 2.0, kinetin 1.0 mg l-1; for Σ RG: mean of Σ RG1, Σ RG2 and Σ RG3: per hormone over the three factor levels
Protocol: Hypocotyl explants ˜5 mm in length were excised from 7-10 day-old seedlings under sterile conditions. Explants were placed in a 25×100-mm petri dish (one seedling per plate) containing ˜30 ml of callus induction medium, sealed with parafilm and cultured at 28±2° C. under a combination of cool white and full spectrum fluorescent lights with a 16-hour light/8-hour dark cycle for 3 to 4 weeks to induce callus formation.
Initial experiments were conducted using MS2NK (2 mg 1^−1 NAA substituted for 2,4-D in MS2DK, Trolinder and Goodin, 1987), a medium used for callus induction in the elite regenerable Coker 312 line. To optimize a callus induction medium for Maxxa, a factorial experiment using an Orthogonal Array L9 (3^4) experimental design ((Taguchi, Introduction to Quality Engineering, Tokyo, Japan (1986)) was performed to determine the best hormonal regime for induction of callus capable of undergoing somatic embryogenesis. The optimal combination of NAA, 2,4-D and kinetin was evaluated at varying concentrations (Table 1) in basal MS medium (Murashige and Skoog, Physiol. Plant. 15:473-497 (1962)) in four independent experiments. In each experiment, 18 hypocotyl explants were excised from 24-48 individual seedlings to provide two explants per seedling per treatment. Each replicated treatment was evaluated for the ability to proliferate a friable callus that was yellowish-green to creamy in color, granular in texture, and readily dispersed in liquid medium. Calli characteristics were scored at 3 weeks and 6 weeks for color, texture, dispersiveness in liquid media, and cell/callus size as the parameters for evaluation. Based on these criteria, the optimized Maxxa callus induction medium (MCIM) selected for cotton regeneration is comprised of MS salts (GibcoBRL Cat no. 11117-074) supplemented with 100 mg 1^−1 myo-inositol, B5 vitamins (10 mg 1^−1 thiamine-HCl; 1 mg 1^−1 nicotinic acid; 1 mg 1^−1 pyridoxine), 0.75 g 1^−1 MgCl2, 30 g 1^−1 glucose, 2.0 mg 1^−1 NAA and 0.05 mg 1^−1 2,4-D. The medium was adjusted to pH 5.8 before adding agar (2.5 g 1^−1 Phytagel).
A factorial experiment using an orthogonal array L9 (3^4) design was conducted to determine optimal conditions for callus induction and somatic embryogenesis by Maxxa hypocotyl explants. Different hormonal combinations of auxin (NAA and/or 2,4-D) and cytokinin (kinetin) were tested at varying concentrations (Table 1) in basal MS medium (Murashige and Skoog, supra). Each of the 9 replicated treatments was scored for callus initiation efficiency (Y) based on two components—(I) the mean of the number of explants producing good quality callus and (II) embryogenic potential, that is, the developmental transition of undifferentiated callus to somatic embryogenesis—expressed as a percent (Table 1). The production and proliferation of callus considered of “good quality” was based on four criteria: color, texture, dispersiveness in liquid media, and size/shape of undifferentiated cells. Within each category, each callus was scored with a rating of 1 to 4 based on the following parameters: Color—dark green (4) to parrot-green/creamy (1), Texture—hard and compact (4) to soft and friable (1), Dispersiveness—intact (4) to readily dispersed cell clumps (1) in liquid medium, Size/Shape—small cells/compact callus (<1 mm) (4) to nodular, “grainy” callus (>2 mm) (1). Good quality callus received ratings of “1” in each category. The embryogenic potential (II) of Y represents the ability of undifferentiated parenchymal cells to organize into meristematic centers and successfully undergo somatic embryogenesis. The factors considered in determining II/Y included the formation of organized cell clusters in embryogenic cultures, the types of embryos produced (globular, heart-shaped, torpedo), and the color of the somatic embryo (white/transparent vs. yellow/opaque). […]

Compound	Importance of the hormone for callus induction from Maxxa hypocotyls, judged from Σ RG	Σ RG1: regeneration potential, mean Y of factor 1	Σ RG2: regeneration potential, mean Y of factor 2	Σ RG3: regeneration potential, mean Y of factor 3	Σ RG: mean of Σ RG1, Σ RG2 and Σ RG3
O=C(O)COc1ccc(Cl)cc1Cl [2,4-D, 2,4-dichlorophenoxyacetic acid]	essential for callus induction	5.77%	61.87%	77.07%	71.30%
c1coc(CNc2ncnc3[nH]cnc23)c1 [Kinetin, kinetin]	not critical	63.27%	32.78%	46.65%	32.49%
